Assay results from patent EP4559463A1, “EDARAVONE OR ITS SALTS FOR USE IN THE TREATMENT OF OXIDATIVE STRESS-MEDIATED NEURODEGENERATIVE DISORDERS” (Ferrer Internacional, S.A., priority 2023, dated 2025).
Entries after “also recorded” stand apart in the source; their conditions may differ. Read-outs that look alike come from different tables or passages of the source.

Assays:
[1] = system: patients with Amyotrophic Lateral Sclerosis (ALS); assay: Clinical assessment of neuropathy in the clinical study of edaravone granules for oral solution; assay type: in vivo, human
Experimental: A clinical study was started to investigate the efficacy and safety of 100 mg of edaravone granules for oral solution (composition shown in table 1 above) in 300 patients with Amyotrophic Lateral Sclerosis (ALS) following treatment for 48 or 72 weeks. The first 100 subjects enrolled will have either 72 weeks of follow-up or have reached an intercurrent event, and the rest (about two thirds of enrolled patients) will be followed up to 48 weeks (or have reached an intercurrent event).
During the treatment, the participants are randomly assigned to receive a daily dose of 100 mg of either edaravone (composition shown in table 1 above) or placebo at a ratio of 2:1 (i.e., two thirds of the patients receive the edaravone formulation and one third receives placebo) for 72 weeks. The study medication, both the placebo and edaravone, is available in single-dose sachets, which must be dissolved in water and taken orally once daily in the morning after a lapse of at least 2 hours from the last meal consumption.
Several authors and regulatory agencies (see for instance EMA/CHMP/290284/2019, page 134) consider that monitoring of the levels of pyridoxal 5'-phosphate (PLP), the active form of vitamin B6, and testing of motor or sensory nerve conduction, such as Nerve Conduction Studies (NCS) described below, should be carried out in order to allow for early detection of neurotoxicity. In addition to this, clinical assessment of neuropathy of patients was carried out by neurologist.
Moreover, the percentage of neuropathy found in patients suffering from other chronic diseases such as diabetes, HIV infection or alcoholism is higher than 20 %. When the blinding of the study is broken, the specific percentages of neuropathy could be linked to the edaravone and placebo arms.

[2] = system: patients with Amyotrophic Lateral Sclerosis (ALS); assay: Nerve Conduction Study (NCS) within the clinical study; assay type: in vivo, human; details: for Sural-Radial Amp Ratio (SRAR), Shift from Baseline: Low to Low / Sural-Radial Amp Ratio (SRAR), Shift from Baseline: Low to Normal / Sural-Radial Amp Ratio (SRAR), Shift from Baseline: Normal to Low / Sural-Radial Amp Ratio (SRAR), Shift from Baseline: Normal to Normal / Sural nerve - SNAP Amp, Shift from Baseline: Low to Low / Sural nerve - SNAP Amp, Shift from Baseline: Low to Normal / Sural nerve - SNAP Amp, Shift from Baseline: Normal to Low / Sural nerve - SNAP Amp, Shift from Baseline: Normal to Normal: blinded pool edaravone/placebo 2:1
Experimental: A centralized evaluation was performed by neurophysiologists to avoid any bias between sites and to guarantee the safety of patients. The NCS was initially performed for the first 60 enrolled patients at screening, and on weeks 4, 12, and 24. […] NCS main criteria for neuropathy are decreased sural nerve SNAP (sensory nerve action potential) amplitudes or decreased sural/radial nerve amplitude ratio (SRAR), although all data is assessed globally. […] The fact that most of the patients show no change in these values, i.e., that they start with 'normal' and remain 'normal' is a sign of lack of neurotoxicity of the treatment. The appearance of neuropathy may also occur at the normal population for other causes such as diabetes or alcoholism, totally unrelated to any treatment. The NCS protocol evaluates the sensory nerve action potential (SNAP) amplitudes using standard ring-electrodes and predefined sites for both stimulus (antidromic) and recording sites, including standardized distances that also apply for the inter-electrode distances. […] These measures eliminate any unwanted variation due to instrumentational differences. NCS data is evaluated independently at a single specialized unit taking into account reference values provided by participating sites and using age-adjusted reference values. Recordings can be performed on a standard type of electromyograph (EMG) equipment (e.g., Natus Nicolet EDX, Nicolet Viking, Dantec Keypoint, TECA Synergy, Cadwell). The following steps were followed to perform the NCS assessment: • Recording and documentation of temperature at start of the assessment at hand and foot respectively. Limb temperature should be ≥ 31°C, otherwise warming may be considered or alternatively accepted correction factor for decreased temperature could be done. • Unilateral recording of sensory responses of the following nerves (hand, followed by lower limb) was carried out: • ∘ Median nerve (hand, dig II). The distance from the stimulus and recording electrode should be recorded. • ∘ Ulnar nerve (hand, dig V). The distance from the stimulus and recording electrode should be recorded. • ∘ Radial nerve (back of the hand). A standardized distance stimulus-recording electrode of 12 cm should be used. • ∘ Sural nerve (leg, lateral malleolus). A standardized distance stimulus-recording electrode of 12 cm should be used. • Recording of sensory responses were carried out using standardized sides (left or right) for stimulation (assessments were performed on one side only, the same side for each subject was used throughout the study). Electrodes were placed at an interelectrode distance of 2 cm. […] For each nerve, sensory nerve action potential (SNAP) amplitudes were evaluated. Antidromic stimulus were provided to the subjects. Required quality of the NCS included: optimization of the recordings, ensuring flat base line without a slope, omitting stimulus artifacts and background noise, so that markers could be placed appropriately, and true SNAP amplitude values could be obtained accurately. The NCS Ranges of normality considered for this clinical study for SNAP Amp (sensory nerve action potential amplitude) and SCV (sensory conduction velocity) are shown below: Table 4 Normal values for the sensory nerve action potential amplitude (SNAP Amp) for the sural nerve are values higher than 8 µV for subjects with less than 40 years of age, higher than 5 µV for subjects with 40-60 years of age, and higher than 2 µV for subjects with more than 60 years of age. Normal values for the sural-radial Amp ratio (SRAR) are values higher than 0.45 for subjects with 18-39 years, higher than 0.32 for subjects with 40-59 years and higher than 0.19 for subjects with 60 or more years of age.

[3] = Vitamin B6 monitoring (plasma pyridoxal 5'-phosphate) within the clinical study; assay type: in vivo, human; parameters: Plasma vitamin B6 (pyridoxal 5'-phosphate), Change from baseline, Median / Plasma vitamin B6 (pyridoxal 5'-phosphate), Change from baseline, Mean: unit not given here; details: for Plasma vitamin B6 (pyridoxal 5'-phosphate), Observed value, Median / Plasma vitamin B6 (pyridoxal 5'-phosphate), Observed value, Mean: no unit in table
Experimental: Therefore, potential neurotoxicity by NCS assessment and by PLP levels during the conduct of the current study was monitored.
Plasmatic concentration of vitamin B6 was monitored at each visit. The normal range of plasma concentration of vitamin B6 in humans (measured as pyridoxal 5'-phosphate) is […], values below this range are considered 'low' and values above, 'high'. In the inclusion visit at time zero patients were classified as 'normal', 'low' or 'high' and the change of this classification was assessed at each visit.
The fact that most of the patients show no change in the classification as 'normal', 'low', or 'high' during the study is a sign of low neurotoxicity of the product. This is the case for patient showing no shift from baseline, for instance 'Normal to Normal' patients.

[4] = system: dogs; details: continuous i.v. infusion, cited from earlier work
[5] = system: monkeys; details: continuous i.v. infusion of 1000 mg/kg/day, 28 days; cited from earlier work
[6] = system: dogs; details: cited from earlier work
[7] = system: beagle dogs; details: continuous edaravone infusion; cited from earlier work
[8] = Visit 1 (Baseline, before treatment), N=163
[9] = Visit 2 (Week 4), N=159, blinded pool edaravone/placebo 2:1
[10] = Visit 3 (Week 12), n=109, blinded pool edaravone/placebo 2:1
[11] = Visit 4 (Week 24), n=59, blinded pool edaravone/placebo 2:1
[12] = Visit 5 (Week 36), n=12, blinded pool edaravone/placebo 2:1

With `CC1=NN(c2ccccc2)C(=O)C1` [edaravone, 5-methyl-2-phenyl-4H-pyrazol-3-one] the “patients showing clinical signs of neuropathy” value ([1]; 313 randomized patients, blinded pool edaravone/placebo 2:1, 100 mg oral once daily, treated 6 months to one year and 7 months) was 2.2%, the “percentage of neuropathy in patients compared with normal population” value ([1]; clinical trial with edaravone, normal population about 8 %) was “not higher than the percentage found in the normal population” and the “number of patients showing clinical signs of neuropathy” value ([1]; out of 313 randomized patients, blinded pool edaravone/placebo 2:1, treated 6 months to one year and 7 months) was 7. For the same compound, the “Sural-Radial Amp Ratio (SRAR), Shift from Baseline: Low to Low” value ([2]; Visit 2 (Week 4), N=165) was 9 (5.5) n (%), the “Sural-Radial Amp Ratio (SRAR), Shift from Baseline: Low to Normal” value ([2]; Visit 2 (Week 4), N=165) was 8 (4.8) n (%) and the “Sural-Radial Amp Ratio (SRAR), Shift from Baseline: Normal to Low” value ([2]; Visit 2 (Week 4), N=165) was 6 (3.6) n (%). The “Sural-Radial Amp Ratio (SRAR), Shift from Baseline: Normal to Normal” value ([2]; Visit 2 (Week 4), N=165) was 142 (86.1) n (%), the “Sural nerve - SNAP Amp, Shift from Baseline: Low to Low” value ([2]; Visit 2 (Week 4), N=167) was 3 (1.8) n (%) and the “Sural nerve - SNAP Amp, Shift from Baseline: Low to Normal” value ([2]; Visit 2 (Week 4), N=167) was 0 (0.0) n (%). For the same compound, the “Sural nerve - SNAP Amp, Shift from Baseline: Normal to Low” value ([2]; Visit 2 (Week 4), N=167) was 2 (1.2) n (%), the “Sural nerve - SNAP Amp, Shift from Baseline: Normal to Normal” value ([2]; Visit 2 (Week 4), N=167) was 162 (97.0) n (%) and the “Sural-Radial Amp Ratio (SRAR), Shift from Baseline: Low to Low” value ([2]; Visit 3 (Week 12), N=112) was 5 (4.5) n (%). The “Sural-Radial Amp Ratio (SRAR), Shift from Baseline: Low to Normal” value ([2]; Visit 3 (Week 12), N=112) was 4 (3.6) n (%), the “Sural-Radial Amp Ratio (SRAR), Shift from Baseline: Normal to Low” value ([2]; Visit 3 (Week 12), N=112) was 10 (8.9) n (%) and the “Sural-Radial Amp Ratio (SRAR), Shift from Baseline: Normal to Normal” value ([2]; Visit 3 (Week 12), N=112) was 93 (83.0) n (%). The “Sural nerve - SNAP Amp, Shift from Baseline: Low to Low” value ([2]; Visit 3 (Week 12), N=115) was 2 (1.7) n (%), the “Sural nerve - SNAP Amp, Shift from Baseline: Low to Normal” value ([2]; Visit 3 (Week 12), N=115) was 0 (0.0) n (%) and the “Sural nerve - SNAP Amp, Shift from Baseline: Normal to Low” value ([2]; Visit 3 (Week 12), N=115) was 3 (2.6) n (%). The “Sural nerve - SNAP Amp, Shift from Baseline: Normal to Normal” value ([2]; Visit 3 (Week 12), N=115) was 110 (95.7) n (%), the “Sural-Radial Amp Ratio (SRAR), Shift from Baseline: Low to Low” value ([2]; Visit 4 (Week 24), N=59) was 4 (6.8) n (%) and the “Sural-Radial Amp Ratio (SRAR), Shift from Baseline: Low to Normal” value ([2]; Visit 4 (Week 24), N=59) was 1 (1.7) n (%). For the same compound, the “Sural-Radial Amp Ratio (SRAR), Shift from Baseline: Normal to Low” value ([2]; Visit 4 (Week 24), N=59) was 4 (6.8) n (%), the “Sural-Radial Amp Ratio (SRAR), Shift from Baseline: Normal to Normal” value ([2]; Visit 4 (Week 24), N=59) was 50 (84.7) n (%) and the “Sural nerve - SNAP Amp, Shift from Baseline: Low to Low” value ([2]; Visit 4 (Week 24), N=60) was 0 (0.0) n (%). The “Sural nerve - SNAP Amp, Shift from Baseline: Low to Normal” value ([2]; Visit 4 (Week 24), N=60) was 0 (0.0) n (%), the “Sural nerve - SNAP Amp, Shift from Baseline: Normal to Low” value ([2]; Visit 4 (Week 24), N=60) was 3 (5.0) n (%) and the “Sural nerve - SNAP Amp, Shift from Baseline: Normal to Normal” value ([2]; Visit 4 (Week 24), N=60) was 57 (95.0) n (%). For the same compound, the “main criteria for neuropathy: decreased sural nerve SNAP amplitudes or decreased sural/radial nerve amplitude ratio (SRAR)” value ([2]; at baseline and at different times during the study) was “not found in most of the patients”, the “Plasma vitamin B6 (pyridoxal 5'-phosphate), Observed value, Median” value (from here on “Plasma vitamin B6 … Observed value, Median”) ([3]; Screening (before treatment), n=182) was 41.50 and the “Plasma vitamin B6 (pyridoxal 5'-phosphate), Observed value, Mean” value (“Plasma vitamin B6 … Observed value, Mean” below) ([3]; Screening (before treatment), n=182, normal range 12-128 ng/L) was 74.90. The “Plasma vitamin B6 … Observed value, Mean” value [3, 8] was 76.6, the “Plasma vitamin B6 … Observed value, Median” value [3, 8] was 41.0 and the “Plasma vitamin B6 (pyridoxal 5'-phosphate), Change from baseline, Mean” value (“Plasma vitamin B6 … Change from baseline, Mean” for short) [3, 9] was 0.5. For the same compound, the “Plasma vitamin B6 (pyridoxal 5'-phosphate), Change from baseline, Median” value (from here on “Plasma vitamin B6 … Change from baseline, Median”) [3, 9] was 2.0, the “Plasma vitamin B6 … Observed value, Mean” value [3, 9] was 77.10 and the “Plasma vitamin B6 … Observed value, Median” value [3, 9] was 43.0. The “Plasma vitamin B6 … Change from baseline, Mean” value [3, 10] was -6.8, the “Plasma vitamin B6 … Change from baseline, Median” value [3, 10] was 2.0 and the “Plasma vitamin B6 … Observed value, Mean” value [3, 10] was 69.80. The “Plasma vitamin B6 … Observed value, Median” value [3, 10] was 43.0, the “Plasma vitamin B6 … Change from baseline, Mean” value [3, 11] was -0.7 and the “Plasma vitamin B6 … Change from baseline, Median” value [3, 11] was 4.0. For the same compound, the “Plasma vitamin B6 … Observed value, Mean” value [3, 11] was 75.9, the “Plasma vitamin B6 … Observed value, Median” value [3, 11] was 45.0 and the “Plasma vitamin B6 … Change from baseline, Mean” value [3, 12] was 19.2. The “Plasma vitamin B6 … Change from baseline, Median” value [3, 12] was 33.5, the “Plasma vitamin B6 … Observed value, Mean” value [3, 12] was 95.8 and the “Plasma vitamin B6 … Observed value, Median” value [3, 12] was 74.5. The “plasmatic concentration of vitamin B6 versus baseline” value ([3]; monitored at each visit) was “do not show a decrease; also recorded: not reduced from baseline”, the “onset of dose-dependent impaired motor function” value ([4]; 300 mg/kg/day) was 13 days and the “onset of dose-dependent impaired motor function” value ([4]; ≥60 mg/kg/day) was 18 days of treatment. For the same compound, the “finding associated with the loss of motor function” value [4] was “axonal degeneration of peripheral nerves fibres and in the CNS”, the “histological correlate in the central and peripheral nervous system” value [5] was “minimal to severe nerve fibre degenerations” and the “motor deficits, time of appearance” value [5] was “third and fourth week”. The “levels of pyridoxal 5'-phosphate (PLP)” value ([6]; continuous i.v. infusions of 1000 mg/kg/day) was “reduced”, the “onset of the axonal nerve fibre degenerations” value ([6]; continuously infused i.v. dose 120 mg/kg/day) was 15 days and the “onset of the axonal nerve fibre degenerations” value ([6]; continuously infused i.v. dose 300 mg/kg/day) was 11 days. For the same compound, the “plasma levels of vitamin B6” value [7] was “decreasing plasma levels of vitamin B6”.
